How the values were obtained:
Interstitial collagenase [1] = target: T1, Interstitial collagenase (Homo sapiens, UniProt P03956); test: Inhibition of MMP-1 (unknown origin)
T1 sequence (P03956 whole entry): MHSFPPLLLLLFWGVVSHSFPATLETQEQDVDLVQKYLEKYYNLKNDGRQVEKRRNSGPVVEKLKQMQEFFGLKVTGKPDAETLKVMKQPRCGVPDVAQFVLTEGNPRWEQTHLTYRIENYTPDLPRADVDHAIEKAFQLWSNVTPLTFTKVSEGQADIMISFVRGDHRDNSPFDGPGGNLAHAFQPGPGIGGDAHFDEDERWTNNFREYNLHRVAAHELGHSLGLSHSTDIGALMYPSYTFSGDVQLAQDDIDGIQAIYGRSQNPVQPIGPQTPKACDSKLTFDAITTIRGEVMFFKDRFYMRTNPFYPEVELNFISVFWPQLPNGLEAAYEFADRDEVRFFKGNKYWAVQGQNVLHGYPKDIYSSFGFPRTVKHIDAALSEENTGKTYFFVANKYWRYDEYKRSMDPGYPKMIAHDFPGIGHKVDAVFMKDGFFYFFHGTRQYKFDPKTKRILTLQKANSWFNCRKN

[2] = target: T2, 72 kDa type IV collagenase (Homo sapiens, UniProt P08253)
Stromelysin-1 [3] = target: T3, Stromelysin-1 (Homo sapiens, UniProt P08254); test: Inhibition of MMP-3 (unknown origin)
Matrilysin [4] = target: T4, Matrilysin (Homo sapiens, UniProt P09237); test: Inhibition of MMP-7 (unknown origin)
T4 sequence (P09237 whole entry): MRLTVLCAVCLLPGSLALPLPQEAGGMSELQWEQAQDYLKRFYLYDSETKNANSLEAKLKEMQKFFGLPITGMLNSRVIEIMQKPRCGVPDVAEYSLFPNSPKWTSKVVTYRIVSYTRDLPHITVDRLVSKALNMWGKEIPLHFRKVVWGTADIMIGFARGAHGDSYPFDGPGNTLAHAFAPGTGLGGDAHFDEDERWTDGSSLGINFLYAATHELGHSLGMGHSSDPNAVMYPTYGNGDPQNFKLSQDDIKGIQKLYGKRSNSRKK

[5] = target: T5, Matrix metalloproteinase-9 (Homo sapiens, UniProt P14780); test: Inhibition of MMP-9 (unknown origin)
Collagenase 3 [6] = target: T6, Collagenase 3 (Homo sapiens, UniProt P45452)
Description: Inhibition of MMP-13 (unknown origin)

[7] = target: T7, Matrix metalloproteinase-14 (Homo sapiens, UniProt P50281); test: Inhibition of MMP-14 (unknown origin)
Interstitial collagenase [8] = target: T1, Interstitial collagenase; test: Inhibition of human MMP-1 expressed in Escherichia coli BL21(DE3) using Mca-Pro-Leu-Gly-Leu-Dpa-Ala-Arg-NH2 as substrate preincubated for 30 mins followed by susbstrate addition by photon-counter spectrophotometer analysis
[9] = target: T2, 72 kDa type IV collagenase; test: Inhibition of human MMP-2 expressed in Escherichia coli BL21(DE3) using Mca-Pro-Leu-Gly-Leu-Dpa-Ala-Arg-NH2 as substrate preincubated for 30 mins followed by susbstrate addition by photon-counter spectrophotometer analysis
Stromelysin-1 [10] = target: T3, Stromelysin-1; test: Inhibition of human MMP-3 expressed in Escherichia coli BL21(DE3) using Mca-Pro-Leu-Gly-Leu-Dpa-Ala-Arg-NH2 as substrate preincubated for 30 mins followed by susbstrate addition by photon-counter spectrophotometer analysis
Matrilysin [11] = target: T4, Matrilysin; test: Inhibition of human MMP-7 expressed in Escherichia coli BL21(DE3) using Mca-Pro-Leu-Gly-Leu-Dpa-Ala-Arg-NH2 as substrate preincubated for 30 mins followed by susbstrate addition by photon-counter spectrophotometer analysis
Neutrophil collagenase [12] = target: T8, Neutrophil collagenase (Homo sapiens, UniProt P22894); test: Inhibition of human MMP-8 expressed in Escherichia coli BL21(DE3) using Mca-Pro-Leu-Gly-Leu-Dpa-Ala-Arg-NH2 as substrate preincubated for 30 mins followed by susbstrate addition by photon-counter spectrophotometer analysis
[13] = target: T5, Matrix metalloproteinase-9; test: Inhibition of human MMP-9 expressed in Escherichia coli BL21(DE3) using Mca-Pro-Leu-Gly-Leu-Dpa-Ala-Arg-NH2 as substrate preincubated for 30 mins followed by susbstrate addition by photon-counter spectrophotometer analysis
Stromelysin-2 [14] = target: T9, Stromelysin-2 (Homo sapiens, UniProt P09238); test: Inhibition of human MMP-10 expressed in Escherichia coli BL21(DE3) using Mca-Pro-Leu-Gly-Leu-Dpa-Ala-Arg-NH2 as substrate preincubated for 30 mins followed by susbstrate addition by photon-counter spectrophotometer analysis
Collagenase 3 [15] = target: T6, Collagenase 3; test: Inhibition of human MMP-13 expressed in Escherichia coli BL21(DE3) using Mca-Pro-Leu-Gly-Leu-Dpa-Ala-Arg-NH2 as substrate preincubated for 30 mins followed by susbstrate addition by photon-counter spectrophotometer analysis
[16] = target: T7, Matrix metalloproteinase-14; test: Inhibition of human MMP-14 expressed in Escherichia coli BL21(DE3) using Mca-Pro-Leu-Gly-Leu-Dpa-Ala-Arg-NH2 as substrate preincubated for 30 mins followed by susbstrate addition by photon-counter spectrophotometer analysis
[17] = target: T2, 72 kDa type IV collagenase; test: Inhibition of MMP-2 (unknown origin) using Mca-Pro-Leu-Gly-Leu-Dpa-Ala-Arg-NH2 as substrate by fluorimetric assay
[18] = target: T5, Matrix metalloproteinase-9; test: Inhibition of MMP-9 (unknown origin) using Mca-Pro-Leu-Gly-Leu-Dpa-Ala-Arg-NH2 as substrate by fluorimetric assay
Neutrophil collagenase [19] = target: T8, Neutrophil collagenase; test: Inhibition of MMP-8 (unknown origin)
[20] = target: Macrophage metalloelastase (Homo sapiens, UniProt P39900); test: Inhibition of MMP-12 (unknown origin)
[21] = target: T2, 72 kDa type IV collagenase; test: Inhibition of MMP-2 (unknown origin) catalytic activity using Ac-PLG-[2-mercapto-4-methylpentanoyl]-LG-OC2H5 as substrate and measured upto 30 mins by microplate reader analysis
[22] = target: T5, Matrix metalloproteinase-9; test: Inhibition of MMP-9 (unknown origin) catalytic activity using Ac-PLG-[2-mercapto-4-methylpentanoyl]-LG-OC2H5 as substrate and measured upto 30 mins by microplate reader analysis
Stromelysin-2 [23] = target: T9, Stromelysin-2; test: Inhibition of MMP-10 (unknown origin)

T5 sequence (P14780 whole entry): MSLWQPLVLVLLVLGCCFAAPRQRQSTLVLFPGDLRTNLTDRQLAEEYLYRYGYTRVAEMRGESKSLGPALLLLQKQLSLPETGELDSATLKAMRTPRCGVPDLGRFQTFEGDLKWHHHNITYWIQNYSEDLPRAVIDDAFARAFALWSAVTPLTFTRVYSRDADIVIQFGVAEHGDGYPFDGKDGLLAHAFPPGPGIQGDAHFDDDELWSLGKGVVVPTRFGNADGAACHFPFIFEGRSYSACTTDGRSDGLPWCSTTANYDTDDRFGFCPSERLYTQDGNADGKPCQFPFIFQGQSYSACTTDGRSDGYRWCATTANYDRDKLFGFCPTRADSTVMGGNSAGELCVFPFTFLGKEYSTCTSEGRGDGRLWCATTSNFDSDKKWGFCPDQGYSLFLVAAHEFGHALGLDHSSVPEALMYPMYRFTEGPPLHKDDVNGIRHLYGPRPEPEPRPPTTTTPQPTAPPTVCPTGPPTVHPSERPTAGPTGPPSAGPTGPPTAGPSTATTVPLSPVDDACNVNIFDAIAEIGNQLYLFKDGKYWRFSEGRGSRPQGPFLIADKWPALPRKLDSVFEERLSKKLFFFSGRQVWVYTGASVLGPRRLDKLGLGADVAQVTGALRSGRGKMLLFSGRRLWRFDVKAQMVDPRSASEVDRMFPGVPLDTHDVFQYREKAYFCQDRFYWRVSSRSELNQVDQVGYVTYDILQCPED
T3 sequence (P08254 whole entry): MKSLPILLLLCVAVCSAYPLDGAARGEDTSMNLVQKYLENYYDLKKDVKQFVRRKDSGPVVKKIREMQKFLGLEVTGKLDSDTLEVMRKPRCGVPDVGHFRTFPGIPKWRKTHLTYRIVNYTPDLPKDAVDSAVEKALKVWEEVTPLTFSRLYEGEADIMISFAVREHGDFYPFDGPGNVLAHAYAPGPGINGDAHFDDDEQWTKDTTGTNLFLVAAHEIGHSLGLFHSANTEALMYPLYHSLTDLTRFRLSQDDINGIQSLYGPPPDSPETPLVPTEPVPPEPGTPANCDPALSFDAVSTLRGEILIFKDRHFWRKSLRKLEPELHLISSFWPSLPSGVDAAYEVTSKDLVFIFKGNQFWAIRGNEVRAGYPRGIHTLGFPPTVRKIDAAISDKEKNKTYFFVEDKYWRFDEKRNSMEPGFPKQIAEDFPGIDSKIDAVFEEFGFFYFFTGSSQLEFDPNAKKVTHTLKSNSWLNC
T2 sequence (P08253 whole entry): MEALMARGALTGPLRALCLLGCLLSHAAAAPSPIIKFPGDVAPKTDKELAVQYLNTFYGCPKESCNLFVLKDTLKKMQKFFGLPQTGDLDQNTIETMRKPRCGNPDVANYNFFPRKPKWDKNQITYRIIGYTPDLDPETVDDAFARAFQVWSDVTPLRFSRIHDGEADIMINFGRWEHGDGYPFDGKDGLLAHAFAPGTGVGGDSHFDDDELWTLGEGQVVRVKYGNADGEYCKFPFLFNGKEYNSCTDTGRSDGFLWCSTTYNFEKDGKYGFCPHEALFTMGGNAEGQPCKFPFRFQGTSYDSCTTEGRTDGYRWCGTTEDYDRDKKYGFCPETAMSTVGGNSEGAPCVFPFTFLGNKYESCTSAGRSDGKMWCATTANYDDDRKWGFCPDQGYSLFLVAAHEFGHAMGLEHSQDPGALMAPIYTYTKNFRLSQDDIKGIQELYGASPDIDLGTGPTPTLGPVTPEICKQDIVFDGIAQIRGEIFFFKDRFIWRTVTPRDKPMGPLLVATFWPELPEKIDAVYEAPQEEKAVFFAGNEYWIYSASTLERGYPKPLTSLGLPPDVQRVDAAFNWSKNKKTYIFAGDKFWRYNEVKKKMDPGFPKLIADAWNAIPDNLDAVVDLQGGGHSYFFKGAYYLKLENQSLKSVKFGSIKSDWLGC
T8 sequence (P22894 whole entry): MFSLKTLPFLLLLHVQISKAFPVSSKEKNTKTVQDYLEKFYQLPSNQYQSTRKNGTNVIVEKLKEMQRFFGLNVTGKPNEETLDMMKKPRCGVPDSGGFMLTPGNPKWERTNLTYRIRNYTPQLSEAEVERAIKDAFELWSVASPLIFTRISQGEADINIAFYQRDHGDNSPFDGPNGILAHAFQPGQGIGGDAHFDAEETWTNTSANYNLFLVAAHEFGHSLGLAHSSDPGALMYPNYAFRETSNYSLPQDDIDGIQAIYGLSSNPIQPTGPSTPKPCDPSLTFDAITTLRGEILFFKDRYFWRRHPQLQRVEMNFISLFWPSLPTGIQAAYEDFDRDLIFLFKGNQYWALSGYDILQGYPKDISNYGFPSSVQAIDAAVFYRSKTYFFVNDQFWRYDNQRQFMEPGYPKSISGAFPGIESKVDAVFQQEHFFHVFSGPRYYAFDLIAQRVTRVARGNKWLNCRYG
Sequence of Macrophage metalloelastase (P39900 whole entry): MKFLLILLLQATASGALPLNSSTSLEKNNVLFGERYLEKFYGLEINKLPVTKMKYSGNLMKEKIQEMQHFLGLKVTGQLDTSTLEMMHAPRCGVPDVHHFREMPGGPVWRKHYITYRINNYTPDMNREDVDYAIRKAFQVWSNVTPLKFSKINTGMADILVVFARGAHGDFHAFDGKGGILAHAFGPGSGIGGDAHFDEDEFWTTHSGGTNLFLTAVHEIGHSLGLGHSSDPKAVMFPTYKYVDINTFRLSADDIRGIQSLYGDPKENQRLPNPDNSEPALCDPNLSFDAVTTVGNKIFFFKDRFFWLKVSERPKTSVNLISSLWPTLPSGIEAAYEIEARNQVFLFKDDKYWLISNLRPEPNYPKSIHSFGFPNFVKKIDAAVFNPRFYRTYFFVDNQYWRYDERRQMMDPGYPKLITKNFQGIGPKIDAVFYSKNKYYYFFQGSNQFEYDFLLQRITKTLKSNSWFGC
T9 sequence (P09238 whole entry): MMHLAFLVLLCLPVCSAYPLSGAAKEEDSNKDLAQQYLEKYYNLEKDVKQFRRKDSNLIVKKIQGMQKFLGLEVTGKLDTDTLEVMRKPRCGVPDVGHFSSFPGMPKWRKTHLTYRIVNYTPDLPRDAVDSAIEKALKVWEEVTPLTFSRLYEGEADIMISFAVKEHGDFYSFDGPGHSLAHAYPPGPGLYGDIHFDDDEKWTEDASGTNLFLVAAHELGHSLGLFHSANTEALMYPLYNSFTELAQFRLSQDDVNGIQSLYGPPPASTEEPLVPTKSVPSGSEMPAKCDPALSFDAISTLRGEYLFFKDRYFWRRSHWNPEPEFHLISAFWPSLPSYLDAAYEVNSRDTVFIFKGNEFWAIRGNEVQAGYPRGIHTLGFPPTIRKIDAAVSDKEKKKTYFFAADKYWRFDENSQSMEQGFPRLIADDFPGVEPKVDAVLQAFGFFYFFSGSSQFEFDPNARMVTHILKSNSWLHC

SMILES: COc1ccc(-c2ccc(CN3C(C(=O)NO)CCS3(=O)=O)cc2)cc1 (centres undefined)
- Ki (Interstitial collagenase [1]): 4950 nM

SMILES: O=C(O)CS(=O)(=O)c1ccc(-c2ccccc2)cc1
- IC50 (Interstitial collagenase [1]): 380000 nM
- IC50 [2]: 12500 nM
- IC50 (Stromelysin-1 [3]): 364000 nM
- IC50 (Matrilysin [4]): 14200 nM
- IC50 [5]: 212000 nM
- IC50 (Collagenase 3 [6]): 101000 nM
- IC50 [7]: 165 nM

SMILES: O=C(NO)C1(S(=O)(=O)c2ccc(Oc3ccc(Cl)cc3)cc2)CCOCC1
- Ki [2]: 0.22 nM
- Ki (Stromelysin-1 [3]): 9.3 nM
- Ki (Matrilysin [4]): 1200 nM

SMILES: CNC(=O)[C@@H](NC(=O)[C@H](CC(C)C)[C@H](O)C(=O)NO)C(C)(C)C
- IC50 [7]: 1.8 nM

SMILES: NC(=O)[C@H](CCC(=O)O)NC(=O)[C@@H](CCC(=O)O)NC(=O)CCc1cc(-c2ccc(-c3cccc(Cl)c3)cc2)no1
- Ki (Interstitial collagenase [8]): 17900 nM
- Ki [9]: 76 nM
- Ki (Stromelysin-1 [10]): 62 nM
- Ki (Matrilysin [11]): 1200 nM
- Ki (Neutrophil collagenase [12]): 181 nM
- Ki [13]: 565 nM
- Ki (Stromelysin-2 [14]): 48 nM
- Ki (Collagenase 3 [15]): 40 nM
- Ki [16]: 2060 nM

SMILES: CC(=O)Nc1ccc(Oc2ccc(S(=O)(=O)CC3CS3)cc2)cc1 (centres undefined)
- Ki (Interstitial collagenase [1]): > 154000 nM
- Ki (Stromelysin-1 [3]): > 188000 nM
- Ki [7]: > 230000 nM

SMILES: O=C(NCCCCC(NS(=O)(=O)c1ccc(-c2ccccc2)cc1)C(=O)O)OCc1ccccc1 (centres undefined)
- IC50 [17]: 50 nM
- IC50 [18]: 1800 nM

SMILES: O=C(CS(=O)(=O)c1ccc(-c2ccccc2)cc1)NO
- IC50 (Interstitial collagenase [1]): 1800 nM
- IC50 [2]: 6 nM
- IC50 (Stromelysin-1 [3]): 200 nM
- IC50 (Matrilysin [4]): 24 nM
- IC50 [5]: 140 nM
- IC50 (Collagenase 3 [6]): 9.8 nM
- IC50 [7]: 376 nM

SMILES: O=C(CCC(NS(=O)(=O)c1ccc(-c2ccccc2)cc1)C(=O)O)NCc1ccccc1 (centres undefined)
- IC50 [5]: 0.704 nM

SMILES: CNC(=O)[C@@H](NC(=O)[C@H](CC(C)C)NC(=O)[C@H](S)CCN1C(=O)N(C)C(C)(C)C1=O)C(C)(C)C
- IC50 (Interstitial collagenase [1]): 25 nM
- IC50 [2]: 41 nM
- IC50 (Stromelysin-1 [3]): 157 nM
- IC50 [5]: 25 nM
- IC50 (Collagenase 3 [6]): 4 nM

SMILES: CN1C(=O)N(C[C@H](C(=O)NO)[C@H](CC2CCCC2)C(=O)N2CCCCC2)C(=O)C1(C)C
- Ki (Neutrophil collagenase [19]): 4 nM

SMILES: CC(C)ON([C@@H](CCNC(=O)OCc1ccccc1)C(=O)NO)S(=O)(=O)c1ccc(-c2ccccc2)cc1
- IC50 (Interstitial collagenase [1]): > 3000 nM
- IC50 [2]: 0.41 nM
- IC50 (Stromelysin-1 [3]): 130 nM
- IC50 (Matrilysin [4]): 10000 nM
- IC50 [5]: 16 nM
- IC50 [7]: 7.7 nM

SMILES: O=C(NO)C(Cc1ccccc1)NS(=O)(=O)c1ccc(-c2cn(-c3ccc(-c4ccccc4)cc3)nn2)cc1 (centres undefined)
- IC50 (Interstitial collagenase [1]): > 10000 nM
- IC50 (Stromelysin-1 [3]): 50 nM
- IC50 (Matrilysin [4]): > 500 nM
- IC50 (Neutrophil collagenase [19]): > 500 nM
- IC50 [20]: 3.8 nM
- IC50 (Collagenase 3 [6]): < 5 nM
- IC50 [7]: 556 nM
- IC50 [21]: 1.3 nM
- IC50 [22]: 5.54 nM
- IC50 (Stromelysin-2 [23]): 181 nM

SMILES: C=CC[C@H](C(=O)NO)C(CC(C)C)C(=O)N[C@@H](Cc1ccccc1)C(=O)NC (some centres undefined)
- IC50 (Interstitial collagenase [1]): 10 nM
- Ki (Interstitial collagenase [1]): 8 nM
- IC50 [2]: 5 nM
- Ki [2]: 4 nM
- IC50 (Stromelysin-1 [3]): 30 nM
- Ki (Stromelysin-1 [3]): 30 nM
- IC50 (Matrilysin [4]): 30 nM
- Ki (Matrilysin [4]): 60 nM
- IC50 (Neutrophil collagenase [19]): 3 nM
- Ki (Neutrophil collagenase [19]): 3 nM
- IC50 [5]: 3 nM
- Ki [5]: 3 nM
- Ki [20]: 5 nM
- Ki (Collagenase 3 [6]): 7 nM
- Ki [7]: 10 nM

SMILES: O=C(NCCCCC(NS(=O)(=O)c1ccc(-c2ccc(Cl)cc2)cc1)C(=O)O)OCc1ccccc1 (centres undefined)
- IC50 [17]: 5 nM
- IC50 [18]: 800 nM

SMILES: O=C(NO)C1(S(=O)(=O)c2ccc(-n3cc(-c4ccc(-c5ccccc5)cc4)nn3)cc2)CCOCC1
- IC50 (Interstitial collagenase [1]): > 1000 nM
- IC50 (Stromelysin-1 [3]): 17.2 nM
- IC50 (Matrilysin [4]): > 100 nM
- IC50 (Neutrophil collagenase [19]): > 100 nM
- IC50 [20]: 3.2 nM
- IC50 (Collagenase 3 [6]): 0.9 nM
- IC50 [7]: 65 nM
- IC50 [21]: 1.4 nM
- IC50 [22]: 98 nM
- IC50 (Stromelysin-2 [23]): 51 nM

SMILES: COc1ccc(-c2cn(-c3ccc(S(=O)(=O)C4(C(=O)NO)CCOCC4)cc3)nn2)cc1
- IC50 (Interstitial collagenase [1]): > 1000 nM
- IC50 (Stromelysin-1 [3]): 9.6 nM
- IC50 (Matrilysin [4]): 70 nM
- IC50 (Neutrophil collagenase [19]): 6.1 nM
- IC50 [20]: 1.2 nM
- IC50 (Collagenase 3 [6]): 1.4 nM
- IC50 [7]: 8.2 nM
- IC50 [21]: 0.3 nM
- IC50 [22]: 11.3 nM
- IC50 (Stromelysin-2 [23]): 7.8 nM

SMILES: NCCCCC(NS(=O)(=O)c1ccc(-c2ccccc2)cc1)C(=O)O (centres undefined)
- IC50 [17]: 900 nM
- IC50 [18]: 40000 nM

SMILES: CCNC(=O)CCC(NS(=O)(=O)c1ccc(-c2ccccc2)cc1)C(=O)O (centres undefined)
- IC50 [5]: 1.19 nM

SMILES: NC(=O)CCC(NS(=O)(=O)c1ccc(-c2ccccc2)cc1)C(=O)O (centres undefined)
- IC50 [5]: 3.57 nM

SMILES: O=C(C[C@@H](CSc1ccccc1)C(=O)O)c1ccc(-c2ccc(Cl)cc2)cc1
- Ki (Interstitial collagenase [1]): > 5000 nM
- Ki [2]: 11 nM
- Ki [5]: 301 nM
- Ki (Collagenase 3 [6]): 147000 nM

SMILES: COc1ccc(S(=O)(=O)N(Cc2ccccc2)[C@@H](C(=O)NO)C(C)C)cc1
- IC50 (Stromelysin-1 [3]): 13 nM
- IC50 [20]: 7.7 nM

SMILES: CN(C)c1ccc(O)c2c1C[C@H]1C[C@H]3[C@H](N(C)C)C(O)=C(C(N)=O)C(=O)[C@@]3(O)C(O)=C1C2=O [MINOCYCLINE]
- IC50 (Stromelysin-1 [3]): 290000 nM
- IC50 (Matrilysin [4]): 125000 nM
- IC50 [5]: 180000 nM

SMILES: CO[C@H](C(=O)NO)[C@@H](CC(C)C)C(=O)N[C@H](C(=O)Nc1ccccn1)C(C)(C)C [SOLIMASTAT]
- IC50 [2]: 80 nM
- IC50 (Matrilysin [4]): 5 nM
- IC50 [5]: 70 nM

— ChEMBL document CHEMBL5113513, “Selective Inhibitors of Medium-Size S1' Pocket Matrix Metalloproteinases: A Stepping Stone of Future Drug Discovery” (J Med Chem, 2022)
